Test results published in ChEMBL document CHEMBL1150213, “Protein-tyrosine kinase inhibition: mechanism-based discovery of antitumor agents” (J Nat Prod, 1992).
Converted amounts (≈) assume the structure as drawn.

Columns and labels:
[1] = Cytotoxicity against human LXFL 529L cells; format: functional
[2] = test system: XF498; assay: Cytotoxicity against human XF498 cells; format: functional
[3] = test system: SK-OV-3; assay: Cytotoxicity against human SKOV3 cells; format: functional
[4] = test system: MOLT-4; assay: Cytotoxicity against human MOLT4 cells; format: functional, cell-based
[5] = test system: UACC-257; assay: Cytotoxicity against human UACC257 cells; format: functional
[6] = test system: HT-29; assay: Cytotoxicity against human HT-29 cells; format: functional
[7] = Cytotoxicity against human 786-O cells; format: functional
[8] = test system: NCI-H226; assay: Cytotoxicity against human NCI-H226 cells; format: functional
[9] = test system: HOP-18; assay: Cytotoxicity against human HOP18 cells; format: functional
[10] = test system: KM12; assay: Cytotoxicity against human KM12 cells; format: functional
[11] = test system: HCC 2998; assay: Cytotoxicity against human HCC2998 cells; format: functional
[12] = test system: SNB-75; assay: Cytotoxicity against human SNB75 cells; format: functional
[13] = test system: SK-MEL-28; assay: Cytotoxicity against human SK-MEL-28 cells; format: functional
[14] = test system: RXF 393; assay: Cytotoxicity against human RXF393 cells; format: functional
[15] = test system: RPMI-8226; assay: Cytotoxicity against human RPMI8226 cells; format: functional, cell-based
[16] = test system: SW-620; assay: Cytotoxicity against human SW620 cells; format: functional
[17] = test system: COLO 205; assay: Cytotoxicity against human COLO205 cells; format: functional
[18] = test system: SK-MEL-5; assay: Cytotoxicity against human SK-MEL-5 cells; format: functional
[19] = test system: SF-295; assay: Cytotoxicity against human SF295 cells; format: functional
[20] = test system: HOP-62; assay: Cytotoxicity against human HOP62 cells; format: functional
[21] = test system: A549; assay: Cytotoxicity against human A549 cells; format: functional
[22] = test system: SNB-19; assay: Cytotoxicity against human SNB19 cells; format: functional
[23] = test system: TK-10; assay: Cytotoxicity against human TK10 cells; format: functional
[24] = test system: DMS-273; assay: Cytotoxicity against human DMS273 cells; format: functional
[25] = test system: SN12C; assay: Cytotoxicity against human SN12C cells; format: functional
[26] = test system: A498; assay: Cytotoxicity against human A498 cells; format: functional
[27] = test system: HCT-116; assay: Cytotoxicity against human HCT116 cells; format: functional
[28] = test system: HL-60(TB); assay: Cytotoxicity against human HL-60(TB) cells; format: functional, cell-based
[29] = test system: DMS-114; assay: Cytotoxicity against human DMS114 cells; format: functional
[30] = test system: OVCAR-5; assay: Cytotoxicity against human OVCAR5 cells; format: functional
[31] = test system: NCI-H522; assay: Cytotoxicity against human NCI-H522 cells; format: functional
[32] = test system: U-251; assay: Cytotoxicity against human U251 cells; format: functional
[33] = test system: ACHN; assay: Cytotoxicity against human ACHN cells; format: functional
[34] = test system: Malme-3M; assay: Cytotoxicity against human MALME-3M cells; format: functional
[35] = test system: M14; assay: Cytotoxicity against human M14 cells; format: functional
[36] = test system: SF-268; assay: Cytotoxicity against human SF268 cells; format: functional
[37] = test system: SR; assay: Cytotoxicity against human SR cells; format: functional, cell-based
[38] = test system: NCI-H460; assay: Cytotoxicity against human NCI-H460 cells; format: functional
[39] = test system: CAKI-1; assay: Cytotoxicity against human Caki1 cells; format: functional
[40] = test system: SK-MEL-2; assay: Cytotoxicity against human SK-MEL-2 cells; format: functional
[41] = test system: HCT-15; assay: Cytotoxicity against human HCT15 cells; format: functional
[42] = test system: SNB-78; assay: Cytotoxicity against human SNB78 cells; format: functional
[43] = test system: DLD-1; assay: Cytotoxicity against human DLD1 cells; format: functional
[44] = test system: KM-20L2; assay: Cytotoxicity against human KM20L2 cells; format: functional
[45] = target: Tyrosine-protein kinase Lck (Homo sapiens, UniProt P06239)
[46] = test system: NCI-H322M; assay: Cytotoxicity against human NCI-H322M cells; format: functional
[47] = test system: NCI-H23; assay: cells; conditions: Homo sapiens
Description: Cytotoxicity against human NCI-H23 cells

[48] = test system: OVCAR-4; assay: Cytotoxicity against human OVCAR4 cells; format: functional
[49] = test system: LOX IMVI; assay: Cytotoxicity against human LOXIMVI cells; format: functional
[50] = test system: CCRF-CEM; assay: Cytotoxicity against human CCRF-CEM cells; format: functional, cell-based
[51] = Cytotoxicity against human RXF631 cells; format: functional
[52] = test system: HOP-92; assay: Cytotoxicity against human HOP92 cells; format: functional
[53] = test system: L1210; assay: Iv vivo cytotoxicity against mouse L1210 cells relative to control in presence of foroxymithine; format: functional
[54] = target: Epidermal growth factor receptor (Homo sapiens, UniProt P00533)
[55] = Cytotoxicity against Rous sarcoma virus-infected rat kidney cells; format: functional
[56] = test system: A-431; assay: Cytotoxicity against human A431 cells; format: functional
[57] = test system: L1210; assay: Cytotoxicity against mouse L1210 cells; format: functional
[58] = test system: K562; assay: Cytotoxicity against human K562 cells; format: functional, cell-based
[59] = target: Tyrosine-protein kinase transforming protein Fps (Fujinami sarcoma virus, UniProt P00530); assay: Inhibition of Fujinami sarcoma virus pp130fps
[60] = target: Insulin receptor (Homo sapiens, UniProt P06213); assay: Inhibition of insulin receptor
[61] = test system: NRK; assay: Growth inhibition of Rous sarcoma virus-transformed rat NRK cells; format: cell-based
[62] = target: Proto-oncogene tyrosine-protein kinase Src (Homo sapiens, UniProt P12931); assay: Inhibition of p60 src
[63] = read-out: Log10GI50 (converted)
[64] = read-out: Log10LC50 (converted)

Sequence of Insulin receptor (P06213 28-758 limits assumed): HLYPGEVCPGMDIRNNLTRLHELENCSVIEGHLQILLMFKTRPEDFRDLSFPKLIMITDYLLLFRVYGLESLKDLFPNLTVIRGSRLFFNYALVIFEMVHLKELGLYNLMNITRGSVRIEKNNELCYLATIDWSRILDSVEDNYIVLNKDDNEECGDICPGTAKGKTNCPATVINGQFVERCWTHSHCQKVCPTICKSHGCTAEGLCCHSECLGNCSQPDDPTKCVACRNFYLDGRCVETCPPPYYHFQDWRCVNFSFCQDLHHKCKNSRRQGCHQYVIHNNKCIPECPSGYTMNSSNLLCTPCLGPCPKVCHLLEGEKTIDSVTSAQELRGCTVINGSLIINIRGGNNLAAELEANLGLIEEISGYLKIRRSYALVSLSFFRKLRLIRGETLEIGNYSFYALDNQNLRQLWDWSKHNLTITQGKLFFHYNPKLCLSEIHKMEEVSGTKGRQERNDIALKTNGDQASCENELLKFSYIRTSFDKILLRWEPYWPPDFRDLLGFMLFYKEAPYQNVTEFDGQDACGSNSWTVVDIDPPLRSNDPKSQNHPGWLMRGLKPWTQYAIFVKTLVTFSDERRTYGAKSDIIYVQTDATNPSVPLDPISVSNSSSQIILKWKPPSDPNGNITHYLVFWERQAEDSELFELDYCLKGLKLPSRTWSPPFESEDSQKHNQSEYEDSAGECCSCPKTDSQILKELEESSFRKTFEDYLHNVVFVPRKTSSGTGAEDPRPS
Sequence of Insulin receptor (P06213 763-1382 limits assumed): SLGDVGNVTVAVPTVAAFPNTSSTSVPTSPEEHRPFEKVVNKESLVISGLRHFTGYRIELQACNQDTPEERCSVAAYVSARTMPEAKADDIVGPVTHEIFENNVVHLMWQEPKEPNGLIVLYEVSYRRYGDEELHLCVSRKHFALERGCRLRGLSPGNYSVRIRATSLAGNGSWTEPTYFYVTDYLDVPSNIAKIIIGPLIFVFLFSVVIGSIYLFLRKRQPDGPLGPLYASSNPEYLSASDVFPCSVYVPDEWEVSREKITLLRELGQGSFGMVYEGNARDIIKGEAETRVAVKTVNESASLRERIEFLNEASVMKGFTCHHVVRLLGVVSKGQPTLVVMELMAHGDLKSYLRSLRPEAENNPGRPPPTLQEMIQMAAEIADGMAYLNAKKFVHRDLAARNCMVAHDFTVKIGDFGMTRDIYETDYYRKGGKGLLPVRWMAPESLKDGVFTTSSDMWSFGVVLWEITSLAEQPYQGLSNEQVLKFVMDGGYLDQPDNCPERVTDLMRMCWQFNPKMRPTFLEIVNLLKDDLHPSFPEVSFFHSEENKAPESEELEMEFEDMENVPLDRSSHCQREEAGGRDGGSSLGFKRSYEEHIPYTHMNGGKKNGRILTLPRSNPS
Sequence of Proto-oncogene tyrosine-protein kinase Src (P12931 2-536 limits assumed): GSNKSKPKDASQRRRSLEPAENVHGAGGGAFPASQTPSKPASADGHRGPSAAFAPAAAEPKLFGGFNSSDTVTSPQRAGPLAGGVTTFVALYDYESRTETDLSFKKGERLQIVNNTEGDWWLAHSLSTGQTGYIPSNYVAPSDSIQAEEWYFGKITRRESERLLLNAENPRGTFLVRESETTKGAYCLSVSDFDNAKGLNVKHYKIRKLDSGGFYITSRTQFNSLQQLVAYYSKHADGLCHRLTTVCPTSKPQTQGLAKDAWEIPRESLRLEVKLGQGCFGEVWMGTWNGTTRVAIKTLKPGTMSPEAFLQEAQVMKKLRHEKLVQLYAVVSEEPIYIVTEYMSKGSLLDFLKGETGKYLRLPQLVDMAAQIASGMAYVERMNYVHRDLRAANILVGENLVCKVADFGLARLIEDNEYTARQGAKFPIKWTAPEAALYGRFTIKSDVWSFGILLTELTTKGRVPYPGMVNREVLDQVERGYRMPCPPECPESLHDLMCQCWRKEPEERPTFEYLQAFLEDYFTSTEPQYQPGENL
Sequence of Tyrosine-protein kinase Lck (P06239 whole entry): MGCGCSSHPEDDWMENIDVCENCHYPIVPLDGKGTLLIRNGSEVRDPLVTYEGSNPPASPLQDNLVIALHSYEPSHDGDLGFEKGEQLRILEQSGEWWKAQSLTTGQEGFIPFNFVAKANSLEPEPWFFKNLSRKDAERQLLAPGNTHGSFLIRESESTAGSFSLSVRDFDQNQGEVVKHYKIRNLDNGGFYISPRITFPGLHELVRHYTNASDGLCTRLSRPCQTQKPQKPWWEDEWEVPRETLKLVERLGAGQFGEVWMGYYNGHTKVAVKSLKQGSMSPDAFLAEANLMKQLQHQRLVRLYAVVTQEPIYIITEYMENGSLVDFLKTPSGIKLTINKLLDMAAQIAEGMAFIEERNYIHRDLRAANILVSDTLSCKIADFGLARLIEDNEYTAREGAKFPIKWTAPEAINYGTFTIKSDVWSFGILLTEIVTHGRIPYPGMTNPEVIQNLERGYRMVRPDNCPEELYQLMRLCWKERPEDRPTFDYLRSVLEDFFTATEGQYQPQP
Sequence of Epidermal growth factor receptor (P00533 whole entry): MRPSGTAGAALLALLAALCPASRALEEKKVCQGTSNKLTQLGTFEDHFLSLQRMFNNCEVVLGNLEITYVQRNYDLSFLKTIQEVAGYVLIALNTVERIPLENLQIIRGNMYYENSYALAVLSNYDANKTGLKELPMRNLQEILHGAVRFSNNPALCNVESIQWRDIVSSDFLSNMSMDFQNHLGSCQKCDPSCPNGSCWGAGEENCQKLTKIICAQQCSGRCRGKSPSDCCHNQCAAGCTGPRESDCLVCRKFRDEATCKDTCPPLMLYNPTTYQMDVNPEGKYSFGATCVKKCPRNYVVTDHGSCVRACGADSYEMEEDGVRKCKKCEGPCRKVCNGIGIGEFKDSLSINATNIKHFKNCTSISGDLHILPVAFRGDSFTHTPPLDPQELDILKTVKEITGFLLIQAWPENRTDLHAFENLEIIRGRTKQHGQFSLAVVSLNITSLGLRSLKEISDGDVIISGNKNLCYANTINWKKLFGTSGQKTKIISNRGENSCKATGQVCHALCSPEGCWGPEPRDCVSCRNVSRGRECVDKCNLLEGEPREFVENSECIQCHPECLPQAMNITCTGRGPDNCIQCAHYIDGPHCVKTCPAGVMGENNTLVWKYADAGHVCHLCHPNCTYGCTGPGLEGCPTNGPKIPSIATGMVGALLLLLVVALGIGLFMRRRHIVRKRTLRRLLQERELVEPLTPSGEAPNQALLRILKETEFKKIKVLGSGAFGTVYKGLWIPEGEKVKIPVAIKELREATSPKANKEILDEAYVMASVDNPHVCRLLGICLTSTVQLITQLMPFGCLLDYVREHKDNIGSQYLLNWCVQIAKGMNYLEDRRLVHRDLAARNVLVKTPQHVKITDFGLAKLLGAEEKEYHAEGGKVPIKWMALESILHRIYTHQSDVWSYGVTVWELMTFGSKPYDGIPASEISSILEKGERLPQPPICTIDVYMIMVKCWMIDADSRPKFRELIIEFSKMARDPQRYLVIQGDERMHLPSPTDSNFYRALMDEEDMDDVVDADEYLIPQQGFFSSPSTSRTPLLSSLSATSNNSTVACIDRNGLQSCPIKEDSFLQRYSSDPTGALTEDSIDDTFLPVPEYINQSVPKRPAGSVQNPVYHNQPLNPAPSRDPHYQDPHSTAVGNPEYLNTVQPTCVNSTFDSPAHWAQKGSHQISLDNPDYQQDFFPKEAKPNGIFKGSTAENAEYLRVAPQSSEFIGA
Sequence of Tyrosine-protein kinase transforming protein Fps (P00530 whole entry): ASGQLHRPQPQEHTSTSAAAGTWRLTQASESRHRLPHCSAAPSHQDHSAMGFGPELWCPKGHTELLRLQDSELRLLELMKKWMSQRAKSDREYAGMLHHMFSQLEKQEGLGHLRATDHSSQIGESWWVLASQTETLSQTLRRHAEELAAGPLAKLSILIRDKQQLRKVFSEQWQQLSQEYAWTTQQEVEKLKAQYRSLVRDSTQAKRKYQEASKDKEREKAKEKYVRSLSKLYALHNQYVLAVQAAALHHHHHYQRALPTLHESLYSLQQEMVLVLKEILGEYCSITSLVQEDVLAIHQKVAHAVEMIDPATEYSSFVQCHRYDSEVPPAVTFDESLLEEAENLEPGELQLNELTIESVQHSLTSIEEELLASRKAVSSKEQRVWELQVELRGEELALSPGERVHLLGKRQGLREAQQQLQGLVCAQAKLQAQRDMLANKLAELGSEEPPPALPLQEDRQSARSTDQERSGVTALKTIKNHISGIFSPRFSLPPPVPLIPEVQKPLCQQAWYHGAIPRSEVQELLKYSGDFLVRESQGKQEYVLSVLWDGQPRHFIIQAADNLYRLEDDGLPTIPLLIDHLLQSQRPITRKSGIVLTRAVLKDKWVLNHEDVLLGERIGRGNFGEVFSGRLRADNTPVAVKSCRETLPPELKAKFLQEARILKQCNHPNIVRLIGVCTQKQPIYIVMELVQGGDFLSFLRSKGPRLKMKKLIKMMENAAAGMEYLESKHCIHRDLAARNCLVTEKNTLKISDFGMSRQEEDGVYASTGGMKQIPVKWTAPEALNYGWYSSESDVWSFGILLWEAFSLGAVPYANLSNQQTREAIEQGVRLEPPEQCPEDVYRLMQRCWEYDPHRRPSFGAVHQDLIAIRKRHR

## Cc1cc(O)c2c(c1)C(=O)c1cc(O)cc(O)c1C2=O [EMODIN]
[1]; [63]
  GI50: 24.5 µM
[1]; [64]
  CC50: > 100 µM
[2]; [63]
  GI50: 26.3 µM
[2]; [64]
  CC50: > 100 µM
[3]; [63]
  GI50: 23.4 µM
[3]; [64]
  CC50: > 100 µM
[4]; [63]
  GI50: 32.4 µM
[4]; [64]
  CC50: > 100 µM
[5]; [63]
  GI50: 28.2 µM
[5]; [64]
  CC50: > 100 µM
[6]; [63]
  GI50: 31.6 µM
[6]; [64]
  CC50: > 100 µM
[7]; 786-0, read-out: Log10GI50 (converted)
  GI50: 17.4 µM
[7]; 786-0, read-out: Log10LC50 (converted)
  CC50: > 100 µM
[8]; [63]
  GI50: 33.1 µM
[8]; [64]
  CC50: > 100 µM
[9]; [63]
  GI50: 3.98 µM
[9]; [64]
  CC50: > 100 µM
[10]; [63]
  GI50: 26.3 µM
[10]; [64]
  CC50: > 100 µM
[11]; [63]
  GI50: 32.4 µM
[11]; [64]
  CC50: > 100 µM
[12]; [63]
  GI50: 25.7 µM
[12]; [64]
  CC50: > 100 µM
[13]; [63]
  GI50: 36.3 µM
[13]; [64]
  CC50: > 100 µM
[14]; [63]
  GI50: 38.9 µM
[14]; [64]
  CC50: > 100 µM
[15]; [63]
  GI50: 24.5 µM
[15]; [64]
  CC50: > 100 µM
[16]; [63]
  GI50: 23.4 µM
[16]; [64]
  CC50: > 100 µM
[17]; [63]
  GI50: 17.8 µM
[17]; [64]
  CC50: 100 µM
[18]; [63]
  GI50: 2.63 µM
[18]; [64]
  CC50: 51.3 µM
[19]; [63]
  GI50: 28.2 µM
[19]; [64]
  CC50: > 100 µM
[20]; [63]
  GI50: 8.13 µM
[20]; [64]
  CC50: > 100 µM
[21]; [63]
  GI50: 26.9 µM
[21]; [64]
  CC50: > 100 µM
[22]; [63]
  GI50: 30.2 µM
[22]; [64]
  CC50: > 100 µM
[23]; [63]
  GI50: 23.4 µM
[23]; [64]
  CC50: 97.7 µM
[24]; [63]
  GI50: 20 µM
[24]; [64]
  CC50: > 100 µM
[25]; [63]
  GI50: 67.6 µM
[25]; [64]
  CC50: > 100 µM
[26]; [63]
  GI50: 16.6 µM
[26]; [64]
  CC50: > 100 µM
[27]; [63]
  GI50: 36.3 µM
[27]; [64]
  CC50: > 100 µM
[28]; [63]
  GI50: 26.9 µM
[28]; [64]
  CC50: > 100 µM
[29]; [63]
  GI50: 40.7 µM
[29]; [64]
  CC50: > 100 µM
[30]; [63]
  GI50: 38 µM
[30]; [64]
  CC50: > 100 µM
[31]; [63]
  GI50: 14.5 µM
[31]; [64]
  CC50: > 100 µM
[32]; [63]
  GI50: 27.5 µM
[32]; [64]
  CC50: > 100 µM
[33]; [63]
  GI50: 19.1 µM
[33]; [64]
  CC50: > 100 µM
[34]; [63]
  GI50: 11.7 µM
[34]; [64]
  CC50: > 100 µM
[35]; [63]
  GI50: 25.1 µM
[35]; [64]
  CC50: > 100 µM
[36]; [63]
  GI50: 25.7 µM
[36]; [64]
  CC50: > 100 µM
[37]; [63]
  GI50: 23.4 µM
[37]; [64]
  CC50: > 100 µM
[38]; [63]
  GI50: 20 µM
[38]; [64]
  CC50: > 100 µM
[39]; [63]
  GI50: 45.7 µM
[39]; [64]
  CC50: > 100 µM
[40]; [63]
  GI50: 20.4 µM
[40]; [64]
  CC50: > 100 µM
[41]; [63]
  GI50: 26.9 µM
[41]; [64]
  CC50: > 100 µM
[42]; [63]
  GI50: 49 µM
[42]; [64]
  CC50: 100 µM
[43]; [63]
  GI50: 23.4 µM
[43]; [64]
  CC50: > 100 µM
[44]; [63]
  GI50: 40.7 µM
[44]; [64]
  CC50: > 100 µM
[45]
  IC50: 18.5 µM
[46]; [63]
  GI50: 35.5 µM
[46]; [64]
  CC50: > 100 µM
[47]; NCI-H23, read-out: Log10GI50 (converted)
  GI50: 14.5 µM
[47]; NCI-H23, read-out: Log10LC50 (converted)
  CC50: > 100 µM
[48]; [63]
  GI50: 30.2 µM
[48]; [64]
  CC50: > 100 µM
[49]; [63]
  GI50: 17 µM
[49]; [64]
  CC50: > 100 µM
[50]; [63]
  GI50: 38 µM
[50]; [64]
  CC50: > 100 µM
[51]; RXF 631, read-out: Log10GI50 (converted)
  GI50: 22.4 µM
[51]; RXF 631, read-out: Log10LC50 (converted)
  CC50: > 100 µM
[52]; [63]
  GI50: 11.5 µM
[52]; [64]
  CC50: > 100 µM

## O=CN/C=C/c1cc(O)ccc1O [ERBSTATIN]
[53]
  T/C: 155%
[54]
  IC50: 3.07 µM
[55]
  GI50: 3 µg/mL (≈ 16.7 µM)
[56]
  GI50: 3 µg/mL (≈ 16.7 µM)
[57]
  GI50: 3 µg/mL (≈ 16.7 µM)

## CO[C@H]1[C@@H](OC)C[C@H](C)[C@@H](OC)C2=CC(=O)C=C(NC(=O)/C(C)=C/C=C/[C@H](OC)[C@@H](OC(N)=O)/C(C)=C/[C@@H]1C)C2=O [HERBIMYCIN]
[4]
  IC50: > 1 µM
[15]
  IC50: > 1 µM
[28]
  IC50: > 1 µM
[37]
  IC50: > 1 µM
[58]
  IC50: 0.095 µM
[50]
  IC50: > 1 µM

## O=c1c(O)c(-c2cc(O)c(O)c(O)c2)oc2cc(O)cc(O)c12 [MYRICETIN]
[59]
  Ki: 1.8 µM
[60]
  Ki: 2.6 µM

## O=c1c(-c2ccc(O)c(O)c2)coc2cc(O)cc(O)c12 [OROBOL]
[61]
  IC50: 4 µg/mL (≈ 14 µM)

## CC(C)[C@H](NC(=O)[C@H](CCCN=C(N)N)NC(=O)[C@@H](N)CC(=O)O)C(=O)N[C@@H](Cc1ccc(O)cc1)C(=O)N[C@H](C(=O)N[C@@H](Cc1cnc[nH]1)C(=O)N1CCC[C@H]1C(=O)N[C@@H](Cc1ccccc1)C(=O)O)C(C)C [[Val5] - ANGIOTENSIN II]
[62]
  Ki: 700 µM
